Counter-ions that a name gives are not always drawn. Like-named read-outs stand apart in the source and are kept apart here.
What was measured:
[1] = test system: histamine-induced constriction of isolated tracheal smooth muscle of guinea pig; assay: Inhibition of the histamine-induced constriction of isolated tracheal smooth muscle of guinea pig; conditions: isolated guinea pig trachea; for IC50: Cavia porcellus, 0.25 h, read-out: Inhibition of the histamine-induced constriction of isolated tracheal smooth muscle of guinea pig pd'2 (converted)
Description: I Study on the Effects Against Spasmogenic Mediators [modified method of J. C. […] The investigation on isolated organs were carried out as follows. OHF Lt/R9 guinea pigs of both sexes weighing 300 to 400 g each were anaesthetized by pentobarbital. Their trachea was removed and sectioned in the opposite side to the site of smooth muscle in longitudinal direction. Subsequently, a strip-like preparation was obtained by […] cutting. […] A rest load of 0.5 g was used. Several washings were carried out during the incubation period of 30 minutes. The change in the tension of the tracheal smooth muscle was followed by using an isometric Grass FT-03 type tensiometer sensor device. A washing was made following the cumulative dose series of the given mediator (e.g. histamine). After reaching the base line, by 15 minutes after administration of the given concentration of the inhibitory (antiasthmatic) substance to be tested, the next cumulative dose series of the mediator was administered. In the case of an inhibitory action, the strength of effect, following the second dose series of the mediator, was […] in comparison to that of the first (control) series. For characterization of strength of the competitive antagonistic effect the pA2 value was determined according to the method of […] A pd'2 value was calculated [J. M. Van Rossum: Arch. Int.

[2] = test system: dextran-induced rat paw edema; assay: Dextran-induced rat paw edema test; format: in vivo; conditions: 50 mg/kg (p.o.)
Description: 3) Dextran-induced rat paw edema test The method of S. Gourvaisier and R. Ducrot [Arch. Int. Pharmacodyn. Ther. 102, 33 (1955)] was employed. The method described for the carrageenin edema test was followed, except that the measurements were carried out 30, 60, 90, 120 and 180 minutes after induction of the inflammation.

[3] = test system: carrageenin-induced rat paw edema; assay: Carrageenin-induced rat paw edema test; format: in vivo, rat (female CFY); conditions: Rattus norvegicus, po, 50 mg/kg (p.o.), read-out: Percentage of the protective effect
Description: Proc. Soc. Exp. Med. 111, 544 (1962)]. Female CFY rats weighing 100 to 120 g each were used after starvation for 24 hours. The inflammation was induced by injecting 0.1 ml of 1% carrageenin solution into the right hind paw plant. The severity of inflammation was determined by using an Ugo-Basile type plethysmometer. The measurement was carried out before and 1.5, 3 and 4.5 hours after induction of the inflammation. The animals were orally treated with the substance to be tested 1 hour before administration of carrageenin. The effect was expressed as percentage inhibition related to the control group.

Row | Structure (SMILES) | IC50 [1] | change in vivo at 50 mg/kg ([3]; 1.5 hours) | change in vivo at 50 mg/kg ([3]; 3 hours) | change in vivo at 50 mg/kg ([3]; 4.5 hours) | also measured
1 | COc1cc2c(cc1OC)C(=C(C#N)SCC(O)CN1CCCCC1)NCC2 (centres unmarked) [Example 15, 2-(6,7-dimethoxy-1,2,3,4,-tetrahydro-1-isoquinolinylidene)-2-[2-hydroxy-3-(1-piperidinyl)propil]mercaptoacetonitrile hydrochloride] | 34.7 µM | – | – | – | –
2 | CCN(CC)CC(O)CSC(C#N)=C1NCCc2cc(OC)c(OC)cc21 (centres unmarked) [Example 1, 2-(6,7-dimethoxy-1,2,3,4-tetrahydro-1-isoquinolinylidene)-2-(3-diethylamino-2-hydroxypropyl)-mercaptoacetonitrile hydrochloride] | 9.12 µM | – | – | – | –
3 | COc1cc2c(cc1OC)C(=C(C#N)SCC(O)CN1CCCC1)NCC2 (centres unmarked) [Example 12, 2-(6,7-dimethoxy-1,2,3,4-tetrahydro-1-isoquinolinylidene)-2-[2-hydroxy-3-(1-pyrrolidinyl)propyl]mercaptoacetonitrile hydrochloride hemihydrate] | 15.5 µM | -27.2% | -18.9% | -17.6% | Percentage of inhibition ([2]; 30 minutes): -20.2%; Percentage of inhibition ([2]; 60 minutes): -15.6%; Percentage of inhibition ([2]; 90 minutes): -14.7%; Percentage of inhibition ([2]; 120 minutes): -14.6%; Percentage of inhibition ([2]; 180 minutes): -12.6%
4 | CCOc1cc2c(cc1OCC)C(=C(C#N)SCC(O)CN1CCOCC1)NCC2 (single isomer, unassigned; (-)) [Example 27, (-)-2-(6,7-diethoxy-1,2,3,4-tetrahydro-1-isoquinolinylidene)-2-[2-hydroxy-3-(4-morpholinyl)propyl]mercaptoacetonitrile d-camphorsulfonate] | 0.537 µM | – | – | – | –
5 | CCOc1cc2c(cc1OCC)C(=C(C#N)SCC(O)CN1CCOCC1)NCC2.Cl (single isomer, unassigned; (+)) [Example 28, (+)-2-(6,7-diethoxy-1,2,3,4-tetrahydro-1-isoquinolinylidene)-2-[2-hydroxy-3-(4-morpholinyl)propyl]mercaptoacetonitrile hydrochloride] | – | – | – | – | Inhibition of the histamine-induced constriction of isolated tracheal smooth muscle of guinea pig pd'2 ([1]; 15 min): 6.36
6 | COc1cc2c(cc1OC)C(=C(C#N)SCC(O)CN(C)CCO)NCC2 (centres unmarked) [Example 3, 2-(6,7-dimethoxy-1,2,3,4-tetrahydro-isoquinolinylidene)-2-[3-(N-methyl-N-2-hydroxyethyl)-amino-2-hydroxypropyl]-mercapto-acetonitrile hydrochloride] | 26.9 µM | – | – | – | –
7 | N#CC(SCC(O)CN1CCOCC1)=C1NCCc2ccccc21 (centres unmarked) [Example 16, 2-(1,2,3,4-tetrahydro-1-isoquinolinylidene)-2-[2-hydroxy-3-(4-morpholinyl)propyl]mercaptoacetonitrile hydrochloride hemihydrate] | 32.4 µM | -29.3% | -22.2% | -20% | –
8 | COc1cc2c(cc1OC)C(=C(C#N)SCC(CN1CCOCC1)OC(C)=O)NCC2 (centres unmarked) [Example 23, 2-(6,7-dimethoxy-1,2,3,4-tetrahydro-1-isoquinolinylidene)-2-[2-acetoxy-3-(4-morpholinyl)propyl]mercaptoacetonitrile hydrochloride] | 17.4 µM | -33.8% | -30.9% | -29.5% | –
9 | COc1cc2c(cc1OC)C(=C(C#N)SCC(O)CNC1CCCCC1)NCC2 (centres unmarked) [Example 10, 2-(6,7-dimethoxy-1,2,3,4-tetrahydro-1-isoquinolinylidene)-2-(3-cyclohexylamino-2-hydroxypropyl)mercaptoacetonitrile hydrochloride] | 105 µM | -14.8% | -13% | -7.2% | Percentage of inhibition ([2]; 30 minutes): -25%; Percentage of inhibition ([2]; 60 minutes): -24%; Percentage of inhibition ([2]; 90 minutes): -25%; Percentage of inhibition ([2]; 120 minutes): -27%; Percentage of inhibition ([2]; 180 minutes): -50%
10 | COc1cc2c(cc1OC)C(=C(C#N)SCC(O)CN1CCCCCC1)NCC2 (centres unmarked) [Example 19, 2-(6,7-dimethoxy-1,2,3,4-tetrahydro-1-isoquinolinylidene)-2-(3-hexamethylenimino-2-hydroxypropyl)mercaptoacetonitrile] | 97.7 µM | -29% | -24.2% | -19.5% | Percentage of inhibition ([2]; 30 minutes): -28.2%; Percentage of inhibition ([2]; 60 minutes): -26.6%; Percentage of inhibition ([2]; 90 minutes): -27.3%; Percentage of inhibition ([2]; 120 minutes): -27.8%; Percentage of inhibition ([2]; 180 minutes): -22.8%
11 | COc1cc2c(cc1OC)C(=C(C#N)SCC(O)CN(CCO)CCO)NCC2 (centres unmarked) [Example 4, 2-(6,7-dimethoxy-1,2,3,4-tetrahydro-1-isoquinolinylidene)-2-[3-(N,N-bis-2-hydroxyethyl)-amino-2-hydroxypropyl]-mercapto-acetonitrile hydrochloride dihydrate] | 50.1 µM | -25% | -26% | -24% | –
12 | COc1cc2c(cc1OC)C(=C(C#N)SCC(O)CN1CCN(C)CC1)NCC2 (centres unmarked) [Example 21, 2-(6,7-dimethoxy-1,2,3,4-tetrahydro-1-isoquinolinylidene)-2-[2-hydroxy-3-(4-methyl-1-piperazinyl)propyl]mercaptoacetonitrile hydrochloride] | 2.88 µM | – | – | – | –

Continued, in another order:

Row | IC50 [1] | Structure (SMILES) | change in vivo at 50 mg/kg ([3]; 1.5 hours) | change in vivo at 50 mg/kg ([3]; 3 hours) | change in vivo at 50 mg/kg ([3]; 4.5 hours) | also measured
13 | 35.5 µM | CCOc1cc2c(cc1OCC)C(=C(C#N)SCC(O)CNC1CCCCC1)NCC2 (centres unmarked) [Example 11, 2-(6,7-diethoxy-1,2,3,4-tetrahydro-1-isoquinolinylidene)-2-(3-cyclohexylamino-2-hydroxypropyl)mercaptoacetonitrile hydrochloride] | – | – | – | –
14 | 41.7 µM | CCOc1cc2c(cc1OCC)C(=C(C#N)SCC(O)CNC(C)(C)C)NCC2 (centres unmarked) [Example 9, 2-(6,7-diethoxy-1,2,3,4-tetrahydro-1-isoquinolinylidene)-2-(3-tert-butylamino-2-hydroxypropyl)mercaptoacetonitrile hydrochloride hemihydrate] | – | – | – | –
15 | 12.6 µM | CCOc1cc2c(cc1OCC)C(=C(C#N)SCC(O)CN1CCCC1)NCC2 (centres unmarked) [Example 13, 2-(6,7-diethoxy-1,2,3,4-tetrahydro-1-isoquinolinylidene)-2-[2-hydroxy-3-(1-pyrrolidinyl)propyl]mercaptoacetonitrile hydrochloride] | -31.8% | -21.8% | -9.05% | –
16 | 7.24 µM | CCOc1cc2c(cc1OCC)C(=C(C#N)SCC(O)CN1CCN(C)CC1)NCC2 (centres unmarked) [Example 22, 2-(6,7-diethoxy-1,2,3,4-tetrahydro-1-isoquinolinylidene)-2-[2-hydroxy-3-(4-methyl-piperazinyl)propyl]mercaptoacetonitrile hydrochloride] | – | – | – | –
17 | 13.5 µM | COc1cc2c(cc1OC)C(=C(C#N)SCC(O)CNC(C)(C)C)NCC2 (centres unmarked) [Example 8, 2-(6,7-dimethoxy-1,2,3,4-tetrahydro-1-isoquinolinylidene)-2-(3-tert-butylamino-2-hydroxypropyl)mercaptoacetonitrile hydrochloride] | – | – | – | –
18 | 45.7 µM | CCOc1cc2c(cc1OCC)C(=C(C#N)SCC(O)CN(CCO)CCO)NCC2 (centres unmarked) [Example 5, 2-(6,7-diethoxy-1,2,3,4-tetrahydro-1-isoquinolinylidene)-2-[3-(N,N-bis-2-hydroxyethyl)-amino-2-hydroxypropyl]mercapto-acetonitrile hydrochloride] | -21% | -16.5% | -10% | –
19 | 0.204 µM | COc1cc2c(cc1OC)C(=C(C#N)SCC(O)CNC(C)C)NCC2 (centres unmarked) [Example 6, 2-(6,7-dimethoxy-1,2,3,4-tetrahydro-1-isoquinolinylidene)-2-(2-hydroxy-3-isopropylaminopropyl)mercaptoacetonitrile hydrochloride hemihydrate] | 0% | -17% | 0% | –
20 | 17.4 µM | CCOc1cc2c(cc1OCC)C(=C(C#N)SCC(O)CNC(C)C)NCC2 (centres unmarked) [Example 7, 2-(6,7-diethoxy-1,2,3,4-tetrahydro-1-isoquinolinylidene)-2-(2-hydroxy-3-isopropylaminopropyl)mercaptoacetonitrile hydrochloride] | – | – | – | –
